Source: patent US6593324B2, “Dervatives of quinoline as alpha-2 antagonists” (Orion Corporation, priority 2000, dated 2003)

How the values were obtained:
[1] = system: male NMRI mice; assay: Antagonism of dexmedetomidine-induced locomotor inhibition; type: in vivo; conditions: various doses 20 min before dexmedetomidine 50 nmol/kg s.c.; activity measured 20 min after; atipamezole effective at 0.3 and 1.0 μmol/kg s.c. (p<0.01); FIG. 1
From the text: Dexmedetomidine and atipamezole are very potent and specific alpha-2 adrenoceptor agonists and antagonists, respectively, which lack alpha-2 subtype selectivity (H. Scheinin et al., European Journal of Pharmacology, Molecular Section, vol.151(1), 1988, p.35-42). The alpha-2 agonist-induced sedation is known to be an alpha-2A-mediated phenomenon that can be antagonised by alpha-2 antagonists (J. Sallinen et al., Mol. Pharmacol. Vol.51, 1997, p.36-46, and A. Haapalinna et al., Naunyn-Schimiedeberg's Arch. Pharmacol. Vol.356, 1997, p.570-582). The sedative effect of alpha-2 agonists in mice is measured by the inhibition on locomotor activity. Therefore, we compared the ability of Compound I and atipamezole to antagonise the dexmedetomidine-induced locomotor inhibition to evaluate the in vivo alpha-2A adrenoceptor antagonism (and alpha-2C selectivity) of these compounds.
Spontaneous locomotor activity of a total of 76 male NMRI mice (B&K, Sweden) was measured by placing individual animals into a polypropylene animal cage (38×22×15 cm). The cages were surrounded with an infrared photobeam frame system designed for activity measurements (Photobeam Activity System PAS, Cage Rack, San Diego Instruments, San Diego, Calif., USA). […] Spontaneous locomotor activity was measured 20 min after dexmedetomidine injection.

[2] = system: Balb/c mice; assay: Mouse forced swimming test; type: in vivo; conditions: 0.3 μmol/kg 40 min before test; activity between 2 and 6 min; Compound 1 p=0.013, atipamezole p=0.52; FIG. 2
From the text: This can be observed for example employing the forced swimming test, in which a rat or mouse is put into a water-filled cylinder. After a vigorous period of attempts to escape animals adopt an immobile floating posture; the extent of the immobile period is monitored and can be reduced by antidepressants and stress-protective agents. Transgenic mice that lack functional alpha-2C adrenoceptor tolerated swim-stress better than their similarly treated wild-type controls (J. Sallinen et al., Mol. Psychiatry, vol.4, 1999, p.443-452). Therefore, an increase in the forced swimming activity can be used as a measure of in vivo alpha-2C selective antagonism of a compound.
The forced swim test was conducted as originally described employing the stress sensitive (J. Crawley and L. Davis, Brain Research Bulletin, vol.8, 1982, p.609-612, and U.S. Pat. No. 5,902,807) Balb/c mouse strain (B&K, Sweden). The mice were administered either with vehicle (0.1% DMSO, 5 ml/kg subcutaneously), Compound 10.3 μmol/kg, or atipamezole 0.3 μmol/kg 40 min before putting the mice into a vessel (10 cm diameter, 18.5 cm height, filled with 25° C. water up to 8 cm height). The cumulative activity of each mouse was measured between 2 and 6 min after introduction to the vessel. Only vigorous attempts to escape (climbing) were registered. The mice (a total of 96) were tested only once.

[3] = system: test animals; conditions: literature report; cited from earlier work
[4] = system: brain; conditions: employed doses of atipamezole; literature report; cited from earlier work

| SMILES | antagonism of dexmedetomidine-induced sedation (locomotor inhibition) [1] | stress-protective effect: forced swimming activity (climbing) vs vehicle [2] | stress-protective effect [3] | neurochemical effect: noradrenaline release in brain [4] |
| --- | --- | --- | --- | --- |
| CN1CCN(c2ccc(Nc3c4ccccc4nc4ccccc34)cc2)CC1 [Compound 1, Acridin-9-yl-[4-(4-methylpiperazin-1-yl)-phenyl]amine] | did not antagonise the alpha-2-agonist-induced sedation at all | tolerated clearly better stress-induced propagation of behavioural despair |  |  |
| CCC1(c2cnc[nH]2)Cc2ccccc2C1 [atipamezole] | inhibited dexmedetomidine-induced sedation | did not have any clear effect on the activity | did not have a clear stress-protective effect | stimulate noradrenaline release in brain |
